Tests used:
C4-2 cells = experiment: Cell proliferation assay (CellTiter-Glo, 5-day exposure), C4-2; format: cell-based; conditions: C4-2, 1000 cells/well, Th-227 labelled at 375 kBq/nmol, mean of 1 to 6 experiments
Procedure, shortened: (§1)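 Growth inhibition by radiolabelled (Th-227) PSMA small-molecule ligands is measured as ATP luminescence after 5 days of treatment, referenced to a day-0 reading from sister plates. VCaP are seeded at 4000 cells/well, the remaining lines at 1000 cells/well.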

22Rv1 cells = experiment: Cell proliferation assay (CellTiter-Glo, 5-day exposure), 22Rv1; format: cell-based; conditions: 22Rv1, 1000 cells/well, Th-227 labelled at 375 kBq/nmol, mean of 1 to 6 experiments
Procedure, shortened: as §1

[1] = Biodistribution study in LNCaP tumor-bearing mice (Th227 counted in organs); format: in vivo, SCID mice; conditions: 500 kBq/kg; for Th-227 in Blood / Th-227 in Femur and tibia / Th-227 in Kidneys / Th-227 in Liver / Th-227 in Salivary gland / Th-227 in Spleen / Th-227 in Tumor / Th-227 in prostate: study b2999
Procedure: (§2) SCID mice were randomly assigned to experimental groups, ten animals per group (efficacy) or n=3-5 per time point of biodistribution study. At the initiation of the study, a testosterone pellet was subcutaneously transplanted, the animals were shaved, tattooed and each cage was labeled with the cage number, study number and number of animals per cage.
(§3) LNCaP human prostate cancer cells were cultured as described according to the supplier's protocols. Cells were harvested for transplantation in a subconfluent (70%) state. Animals were injected with 5×10^6 LNCaP cells suspended in 100% Matrigel subcutaneously into the flank of the mice.
Biodistribution study: When tumors reached a predetermined size in mice of ˜50 mm^2 animals were randomized into groups (n=3 animals/time point) and the radioactive compound was once applied intravenously. The i.v. application volume was 100 μl/mice.
At the predetermined time point, n=3 animals were sacrificed, the organs removed, weight and measured in a Germanium detector to count the Th227 in the sample.

[2] = test system: LNCaP human prostate cancer cells; experiment: LNCaP xenograft efficacy study (T/C tumor area); format: in vivo, SCID mice; conditions: Example I
Procedure: as §2, §3
Efficacy study: When tumors reached a predetermined size in mice of 35-50 mm^2 animals were randomized into treatment and control groups (n=10 animals/group) and treatment with the defined radioactive dose was started. The i.v. application volume was 100 μl/mice.
Tumor response was assessed by determination of the tumor area (product of the longest diameter and its perpendicular) using a caliper. The animal body weight was monitored as a measure for treatment-related toxicity. Measurement of tumor area and body weight was performed two to three times weekly.
Animals were sacrificed when showing signs of toxicity (>20% body weight loss) or when tumors reached a size of approximately 200 mm^2.
Tumor growth inhibition is presented as T/C ratio (Treatment/Control) calculated with tumor areas when the vehicle control group had to be closed.

VCaP cells = experiment: Cell proliferation assay (CellTiter-Glo, 5-day exposure), VCaP; format: cell-based; conditions: 4000 cells/well, Th-227 labelled at 375 kBq/nmol, mean of 1 to 6 experiments
Procedure, shortened: as §1

O=C(O)CCC(NC(=O)NC(CCCCNC(=O)C(Cc1ccc2ccccc2c1)NC(=O)C1CCC(CNC(=S)Nc2ccc(CC(CN(CCNC(=O)c3ccn(CCO)c(=O)c3[O-])CCNC(=O)c3ccn(CCO)c(=O)c3[O-])CN(CCNC(=O)c3ccn(CCO)c(=O)c3[O-])CCNC(=O)c3ccn(CCO)c(=O)c3[O-])cc2)CC1)C(=O)O)C(=O)O.[227Th+4] (centres unmarked) [Example 1-F-227Th]
Proliferation assay on cancer cell lines by TTCs Default Pivot #3 IC50 [kBq/mL] C4-2 1000cells 375kBq/nmol (mean) (C4-2 cells): 2.14 kBq/mL | Proliferation assay on cancer cell lines by TTCs Default Pivot #3 IC50 [kBq/mL] 22Rv1 1000cells 375kBq/nmol (mean) (22Rv1 cells): 1.06 kBq/mL | Background in blood, liver and spleen (in words) ([1]; comparison of % injected dose per gram tissue): highest background | Th-227 in Blood ([1]; 0.25 h): 4.80 % ID Th-227/g organ | Th-227 in Femur and tibia ([1]; 0.25 h): 1.46 % ID Th-227/g organ | Th-227 in Kidneys ([1]; 0.25 h): 51.79 % ID Th-227/g organ | Th-227 in Liver ([1]; 0.25 h): 2.63 % ID Th-227/g organ | Th-227 in Salivary gland ([1]; 0.25 h): 0.31 % ID Th-227/g organ | Th-227 in Spleen ([1]; 0.25 h): 2.35 % ID Th-227/g organ | Th-227 in Tumor ([1]; 0.25 h): 9.36 % ID Th-227/g organ | Th-227 in prostate ([1]; 0.25 h): 3.62 % ID Th-227/g organ | Th-227 in Blood ([1]; 1 hr): 2.28 % ID Th-227/g organ | Th-227 in Femur and tibia ([1]; 1 hr): 1.68 % ID Th-227/g organ | Th-227 in Kidneys ([1]; 1 hr): 58.96 % ID Th-227/g organ | Th-227 in Liver ([1]; 1 hr): 2.41 % ID Th-227/g organ | Th-227 in Salivary gland ([1]; 1 hr): 2.68 % ID Th-227/g organ | Th-227 in Spleen ([1]; 1 hr): 1.86 % ID Th-227/g organ | Th-227 in Tumor ([1]; 1 hr): 10.58 % ID Th-227/g organ | Th-227 in prostate ([1]; 1 hr): 4.83 % ID Th-227/g organ | Th-227 in Blood ([1]; 6 hr): 0.35 % ID Th-227/g organ | Th-227 in Femur and tibia ([1]; 6 hr): 1.30 % ID Th-227/g organ | Th-227 in Kidneys ([1]; 6 hr): 67.34 % ID Th-227/g organ | Th-227 in Liver ([1]; 6 hr): 2.19 % ID Th-227/g organ | Th-227 in Salivary gland ([1]; 6 hr): 1.48 % ID Th-227/g organ | Th-227 in Spleen ([1]; 6 hr): 1.51 % ID Th-227/g organ | Th-227 in Tumor ([1]; 6 hr): 13.03 % ID Th-227/g organ | Th-227 in prostate ([1]; 6 hr): 1.97 % ID Th-227/g organ | Th-227 in Blood ([1]; 24 h): 0.06 % ID Th-227/g organ | Th-227 in Femur and tibia ([1]; 24 h): 0.88 % ID Th-227/g organ | Th-227 in Kidneys ([1]; 24 h): 34.39 % ID Th-227/g organ | Th-227 in Liver ([1]; 24 h): 2.49 % ID Th-227/g organ | Th-227 in Salivary gland ([1]; 24 h): 0.75 % ID Th-227/g organ | Th-227 in Spleen ([1]; 24 h): 0.94 % ID Th-227/g organ | Th-227 in Tumor ([1]; 24 h): 6.05 % ID Th-227/g organ | Th-227 in prostate ([1]; 24 h): 0.34 % ID Th-227/g organ | Th-227 in Blood ([1]; 72 h): 0.02 % ID Th-227/g organ | Th-227 in Femur and tibia ([1]; 72 h): 0.79 % ID Th-227/g organ | Th-227 in Kidneys ([1]; 72 h): 12.99 % ID Th-227/g organ | Th-227 in Liver ([1]; 72 h): 1.96 % ID Th-227/g organ | Th-227 in Salivary gland ([1]; 72 h): 0.73 % ID Th-227/g organ | Th-227 in Spleen ([1]; 72 h): 1.14 % ID Th-227/g organ | Th-227 in Tumor ([1]; 72 h): 3.40 % ID Th-227/g organ | Th-227 in prostate ([1]; 72 h): 0.68 % ID Th-227/g organ | Th-227 in Blood ([1]; 168 h): 0.00 % ID Th-227/g organ | Th-227 in Femur and tibia ([1]; 168 h): 1.07 % ID Th-227/g organ | Th-227 in Kidneys ([1]; 168 h): 6.79 % ID Th-227/g organ | Th-227 in Liver ([1]; 168 h): 2.14 % ID Th-227/g organ | Th-227 in Salivary gland ([1]; 168 h): 0.74 % ID Th-227/g organ | Th-227 in Spleen ([1]; 168 h): 1.34 % ID Th-227/g organ | Th-227 in Tumor ([1]; 168 h): 1.13 % ID Th-227/g organ | Th-227 in prostate ([1]; 168 h): 0.13 % ID Th-227/g organ | Th-227 in Blood ([1]; 336 h): 0.00 % ID Th-227/g organ | Th-227 in Femur and tibia ([1]; 336 h): 1.18 % ID Th-227/g organ | Th-227 in Kidneys ([1]; 336 h): 2.29 % ID Th-227/g organ | Th-227 in Liver ([1]; 336 h): 1.69 % ID Th-227/g organ | Th-227 in Salivary gland ([1]; 336 h): 0.42 % ID Th-227/g organ | Th-227 in Spleen ([1]; 336 h): 1.41 % ID Th-227/g organ | Th-227 in Tumor ([1]; 336 h): 0.74 % ID Th-227/g organ | Th-227 in prostate ([1]; 336 h): 0.22 % ID Th-227/g organ | T/Carea ([2]; day 27, 2 x 400 + 2 x 750 kBq/kg weekly): 1.03 | T/Carea ([2]; day 37, 2 x 400 + 3 x 750 kBq/kg): 0.82 | Proliferation assay on cancer cell lines by TTCs Default Pivot #3 IC50 [kBq/mL] VCap 4000cells 375kBq/nmol (mean) (VCaP cells): 3.07 kBq/mL
